Data on 10 compounds can be found in patent US9512114B2, “Substituted aminopyrimidine compounds and methods of use” (Calitor Sciences, LLC, priority 2013, dated 2016).

The nature of series [1]: Compound stability in human liver microsomes. The format is in vitro ADME. The following applies: pH 7.4; for CLint scaled at 5 μM: liver microsomes, in vivo CLint extrapolated from human liver microsome incubation; for half-life at 5 μM: human liver microsomes 0.5 mg protein/mL, compound 5 μM, NADPH 1.0 mM, 37° C., read-out: Human T1/2. The procedure: (§1) The LC/MS/MS system used in the analysis consists of an Agilent 1200 Series vacuum degasser, binary pump, well-plate autosampler, thermostatted column compartment, the Agilent G6430 Triple Quadrupole Mass Spectrometer with an electrosprayionization (ESI) source. Quantitative analysis was carried out using MRM mode. The parameters for MRM transitions are in the Table A.
(§2) An Agilent XDB-C18, 2.1×30 mm, […] column was used for the analysis. 5 μL of the samples were injected. Analysis condition: The mobile phase was 0.1% formic acid in water (A) and 0.1% formic acid in methanol (B). The flow rate was 0.4 mL/min. And the gradient of Mobile phase was in the Table B.
(§3) Alternatively, an Agilent 6330 series LC/MS/MS spectrometer equipped with G1312A binary pumps, a G1367A autosampler and a G1314C UV detector were used in the analysis. An ESI source was used on the LC/MS/MS spectrometer. The analysis was done in positive ion mode as appropriate and the MRM transition for each analyte was optimized using standard solution. A Capcell MP-C18 100×4.6 mm I.D., […] column (Phenomenex, Torrance, Calif., USA) was used during the analysis. The mobile phase was 5 mM ammonia acetate, 0.1% MeOH in water (A): 5 mM ammonia acetate, 0.1% MeOH in acetonitrile (B) (70:30, v/v). The flow rate was 0.6 mL/min. Column was maintained at ambient temperature. 20 μL of the samples were injected.
(§4) Human or rat liver microsomes incubations were conducted in duplicate in polypropylene tubes. The typical incubation mixtures consisted of human or rat liver microsomes (0.5 mg protein/mL), compounds of interest (5 μM) and NADPH (1.0 mM) in a total volume of 200 μL potassium phosphate buffer (PBS, 100 mM, pH 7.4). Compounds were dissolved in DMSO and diluted with PBS such that the final concentration of DMSO was 0.05%. The enzymatic reactions were commenced with the addition of protein after a 3-min preincubation and incubated in a water bath open to the air at 37° C. Reactions were terminated at various time points (0, 5, 10, 15, 30, 60 min) by adding equal volume of ice-cold acetonitrile. The samples were stored at −80° C. until LC/MS/MS assays.
(§5) The concentrations of compounds in the incubation mixtures of human or rat liver microsomes were determined by a LC/MS/MS method. The ranges of the linearity in the concentration range were determined for each tested compounds.
(§6) A parallel incubation was performed using denatured microsomes as the negative control, and reactions were terminated at various time points (0, 15, 60 min) after incubation at 37° C.
(§7) Dextromethorphan (70 μM) was selected as the positive control, and reactions were terminated at various time points (0, 5, 10, 15, 30, 60 min) after incubation at 37° C. Both positive and negative control samples were included in each assay to ensure the integrity of the microsomal incubation system.
(§8) The concentrations of compounds in human or rat liver microsome incubations were plotted as a percentage of the relevant zero time point control for each reaction. The in vivo CLint were extrapolated (ref.: Naritomi, Y.; Terashita, S.; Kimura, S.; Suzuki, A.; Kagayama, A.; and Sugiyama, Y.; Prediction of human hepatic clearance from in vivo animal experiments and in vitro metabolic studies with liver microsomes from animals and humans. Drug Metab. Dispos., 2001, 29: 1316-1324).

Series [2] in a line: Compound stability in rat liver microsomes. The series is classed as in vitro ADME. The conditions noted are these: pH 7.4; for CLint scaled at 5 μM: liver microsomes, in vivo CLint extrapolated from rat liver microsome incubation; for half-life at 5 μM: rat liver microsomes 0.5 mg protein/mL, compound 5 μM, NADPH 1.0 mM, 37° C., read-out: Rat T1/2. The procedure:
as §1, §2, §3, §4, §5, §6, §7, §8

Series [3] in a line: Pharmacokinetic profiles in rats. The series is classed as in vivo, rat. The conditions noted are these: for Cl/F / AUC(0-t) / half-life / Vd: iv dosing 1 mg/kg; for F: oral vs iv (iv 1 mg/kg; p.o. generally 5 or 10 mg/kg); for AUC(0-t) / half-life / Vd: rat, plasma; for Vd: read-out: Vss. Here is the method: The compounds disclosed herein are assessed in pharmacokinetic studies in mice, rats, dogs or monkeys. The compounds are administered as a water solution, 2% HPMC+1% TWEEN®80 in water solution, 5% DMSO+5% solutol in saline, 4% MC suspension or capsule. For the intravenous administration, the animals are generally given at 1 or 2 mg/kg dose. For the oral (p.o.) dosing, mice and rats are generally given 5 or 10 mg/kg dose, and dogs and monkeys are generally given 10 mg/kg dose. The blood samples (0.3 mL) are drawn at 0.25, 0.5, 1.0, 2.0, 3.0, 4.0, 6.0, 8.0, 12 and 24 h time points or 0.083, 0.25, 0.5, 1.0, 2.0, 4.0, 6.0, 8.0 and 24 h time points and centrifuged at 3,000 or 4000 rpm for 2 to 10 min. The plasma solutions are collected, stored at −20° C. or −70° C. until analyzed by LC/MS/MS as described above.

Usually CLint scaled stands for a measure of how fast metabolising enzymes remove a compound, apart from limits set by blood flow. What is called AUC(0-t) is the area under the concentration-time curve up to a stated or last time point. Low values mean less exposure, high ones more exposure. Consider `CC[C@H](Nc1ncnc(N)c1-c1ncn(C)n1)c1cc2cccc(Cl)c2c(=O)n1C1CC1` [Ex. 20, (S)-3-(1-((6-amino-5-(1-methyl-1H-1,2,4-triazol-3-yl)pyrimidin-4-yl)amino)propyl)-8-chloro-2-cyclopropylisoquinolin-1(2H)-one], for which, in series [1], the intrinsic clearance (CLint scaled) at 5 μM was 251 mL/min/kg and the half-life at 5 μM is 6.93 min. Besides, in series [2], the intrinsic metabolic clearance (CLint scaled) at 5 μM is 100 mL/min/kg and the half-life at 5 μM turned out to be 24.9 min. In series [3], this compound showed a Cl/F of 48.7 mL/min/kg, an F of 64.61%, an area under the curve AUC(0-t) of 341 ng·h/mL and a half-life of 48.6 min. For the same compound, the Vd in series [3] was determined as 2.65 L/kg.
With `CC[C@H](Nc1ncnc(N)c1-c1nnn(C)n1)c1cc2cccc(Cl)c2c(=O)n1C1CC1` [Ex. 13, (S)-3-(1-((6-amino-5-(2-methyl-2H-tetrazol-5-yl)pyrimidin-4-yl)amino)propyl)-8-chloro-2-cyclopropylisoquinolin-1(2H)-one], in series [1], the CLint scaled at 5 μM is 157 mL/min/kg and the half-life at 5 μM amounted to 11.1 min. Besides, in series [2], the CLint scaled at 5 μM is 137 mL/min/kg and the half-life at 5 μM worked out at 18.2 min. In series [3], the Cl/F turned out to be 36.2 mL/min/kg, the F is on record as 67.9%, the AUC(0-t) stood at 465 ng·h/mL and the half-life was 99.6 min. In addition, the Vd in series [3] worked out at 4.42 L/kg.
With `CCCCOC(=O)c1nc(-c2c(N)ncnc2N[C@@H](CC)c2cc3cccc(Cl)c3c(=O)n2C2CC2)nn1C` [Ex. 14, (S)-butyl 3-(4-amino-6-((1-(8-chloro-2-cyclopropyl-1-oxo-1,2-dihydro-isoquinolin-3-yl)propyl)amino)pyrimidin-5-yl)-1-methyl-1H-1,2,4-triazole-5-carboxylate], in series [1], the CLint scaled at 5 μM is 225 mL/min/kg and the half-life at 5 μM was 7.73 min. Besides, in series [2], the intrinsic metabolic clearance (CLint scaled) at 5 μM is 125 mL/min/kg and the half-life at 5 μM is 19.9 min.
For the compound `CC[C@H](Nc1ncnc(N)c1-c1noc(C)n1)c1cc2cccc(Cl)c2c(=O)n1C1CC1` [Ex. 21, (S)-3-(1-((6-amino-5-(5-methyl-1,2,4-oxadiazol-3-yl)pyrimidin-4-yl)amino)propyl)-8-chloro-2-cyclopropylisoquinolin-1(2H)-one], the results for the CLint scaled at 5 μM in series [1] and in series [2] were 258 mL/min/kg and 130 mL/min/kg, respectively. The half-life at 5 μM in series [1] came to 6.73 min; in series [2] it was 19.2 min.
For the compound `C[C@H](Nc1ncnc(N)c1-c1nnn(C)n1)c1cc2cccc(-c3cnn(C)c3)c2c(=O)n1C1CC1` [Ex. 33, (S)-3-(1-((6-amino-5-(2-methyl-2H-tetrazol-5-yl)pyrimidin-4-yl)amino)ethyl)-2-cyclopropyl-8-(1-methyl-1-pyrazol-4-yl)isoquinolin-1 (2H)-one], in series [1], the CLint scaled at 5 μM was 28.4 mL/min/kg and the half-life at 5 μM worked out at 61.3 min. Further, in series [2], the intrinsic metabolic clearance (CLint scaled) at 5 μM is 26.7 mL/min/kg and the half-life at 5 μM is 92.9 min. In series [3], this compound had a Cl/F of 12.7 mL/min/kg, an F of 163.6%, an AUC(0-t) of 1300 ng·h/mL and a half-life of 97.2 min. Further, the Vd in series [3] stood at 1.9 L/kg.
For `C[C@H](Nc1ncnc(N)c1-c1nnn(C)n1)c1cc2cccc(-c3cnn(C)c3)c2c(=O)n1-c1ccccc1` [Ex. 29, (S)-3-(1-((6-amino-5-(2-methyl-2H-tetrazol-5-yl)pyrimidin-4-yl)amino)ethyl)-8-(1-methyl-1H-pyrazol-4-yl)-2-phenylisoquinolin-1(2H)-one], in series [1], the intrinsic clearance (CLint scaled) at 5 μM is 19 mL/min/kg and the half-life at 5 μM is 91.5 min. Moreover, in series [2], the CLint scaled at 5 μM was 38.3 mL/min/kg and the half-life at 5 μM worked out at 64.9 min. For the same compound, in series [3], the Cl/F came out at 10 mL/min/kg, the F came out at 80.6%, the AUC(0-t) was 1780 ng·h/mL and the half-life is 78 min. For the same compound, the Vd in series [3] is 0.88 L/kg.
Regarding `Cc1noc(-c2c(N)ncnc2N[C@@H](C)c2cc3cccc(Cl)c3c(=O)n2-c2cccc(F)c2)n1` [Ex. 23, (S)-3-(1-((6-amino-5-(3-methyl-1,2,4-oxadiazol-5-yl)pyrimidin-4-yl)amino)ethyl)-8-chloro-2-(3-fluorophenyl)isoquinolin-1(2H)-one], the intrinsic metabolic clearance (CLint scaled) at 5 μM in series [1] is 479 mL/min/kg; in series [2], 456 mL/min/kg. Moreover, the half-life at 5 μM came out at 3.63 min in series [1] and 5.45 min in series [2].
Consider `CC[C@H](Nc1ncnc(N)c1-c1nc(C)no1)c1cc2cccc(Cl)c2c(=O)n1-c1ccccc1` [Ex. 3, (S)-3-(1-((6-amino-5-(3-methyl-1,2,4-oxadiazol-5-yl)pyrimidin-4-yl)amino)propyl)-8-chloro-2-phenylisoquinolin-1(2H)-one], for which, in series [1], the CLint scaled at 5 μM was 134 mL/min/kg and the half-life at 5 μM was determined as 12.9 min. In series [2], the CLint scaled at 5 μM was 148 mL/min/kg and the half-life at 5 μM worked out at 16.7 min. In series [3], the Cl/F was 128 mL/min/kg, the F amounted to 12.71%, the AUC(0-t) was 131 ng·h/mL and the half-life was 44.4 min. The Vd in series [3] worked out at 4.96 L/kg.
For `C[C@H](Nc1ncnc(N)c1-c1nnn(C)n1)c1cc2cccc(Cl)c2c(=O)n1-c1ccccc1` [Ex. 15, (S)-3-(1-((6-amino-5-(2-methyl-2H-tetrazol-5-yl)pyrimidin-4-yl)amino)ethyl)-8-chloro-2-phenylisoquinolin-1(2H)-one], in series [1], the CLint scaled at 5 μM was 287 mL/min/kg and the half-life at 5 μM came to 6.06 min. Moreover, in series [2], the CLint scaled at 5 μM was 99.9 mL/min/kg and the half-life at 5 μM worked out at 24.9 min. Further, in series [3], the Cl/F was 22.7 mL/min/kg, the F amounted to 48.92%, the AUC(0-t) was 758 ng·h/mL and the half-life was 51.6 min. Also, the Vd in series [3] is 0.92 L/kg.
Regarding `CC[C@H](Nc1ncnc(N)c1-c1nc(C)no1)c1cc2cccc(-c3cnn(C)c3)c2c(=O)n1C1CC1` [Ex. 32, (S)-3-(1-((6-amino-5-(3-methyl-1,2,4-oxadiazol-5-yl)pyrimidin-4-yl)amino)propyl)-2-cyclopropyl-8-(1-methyl-1H-pyrazol-4-yl)isoquinolin-1(2H)-one], in series [1], the intrinsic metabolic clearance (CLint scaled) at 5 μM is 23.4 mL/min/kg and the half-life at 5 μM is 74.3 min. For the same compound, in series [2], the intrinsic clearance (CLint scaled) at 5 μM is 21.2 mL/min/kg and the half-life at 5 μM turned out to be 117 min. Besides, in series [3], the Cl/F stood at 24.3 mL/min/kg, the F came to 74.2%, the AUC(0-t) came out at 688 ng·h/mL and the half-life is 89.4 min. Besides, in series [3], the Vd is 2.42 L/kg.
